From the NIST ThermoML archive (doi:10.1021/je200963q)
Numbers after ± are expanded uncertainties.

Experiment: wn = mass fraction of the nth substance listed
Conditions: 303.15 K, 101.3 kPa, Liquid, w1 = 0.08

- viscosity (Capillary tube (Ostwald / Ubbelohde) method): 1.069 ± 0.009 mPa·s
- mass density: 996.7 ± 0.4 kg/m3
Compound: CCCCOCCOCCO [3,6-dioxa-1-decanol] + O
